#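 Results reflect a 48-hour exposure of cells in 96-well plates to compound at five concentrations. At the GI50, growth is halved.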 Active and inactive are the calls of the source. Cut-off read from the data, not from the text of the source: active = GI50 up to about 1.1 µM and inactive = higher.
# Assays:
# Experiment in all cases: NCI tumour cell line growth inhibition, 48 h
# [1] = tested on: MDA-N
# [2] = tested on: Hs-578T
# [3] = tested on: MCF7
# [4] = tested on: MOLT-4
# [5] = tested on: K562
# [6] = tested on: HCT-116
# [7] = tested on: SR
# [8] = tested on: IGROV-1
# [9] = tested on: OVCAR-3
# [10] = tested on: NCI-H460
# [11] = tested on: T47D
# [12] = tested on: RPMI-8226
# [13] = tested on: SF-268
# [14] = tested on: SK-MEL-28
# [15] = tested on: TK-10
# [16] = tested on: SN12C
# [17] = tested on: OVCAR-5
# [18] = tested on: HOP-92
# [19] = tested on: CAKI-1
# [20] = tested on: SF-295
# [21] = tested on: NCI-H23
# [22] = tested on: A498
# [23] = tested on: HCT-15
# [24] = tested on: M14
# [25] = tested on: U-251
# [26] = tested on: HOP-62
# [27] = tested on: A549
# [28] = tested on: UACC-62
# [29] = tested on: NCI-H226
# [30] = tested on: EKVX
# [31] = tested on: SK-OV-3
# [32] = tested on: 786-0
# [33] = tested on: SK-MEL-5
# [34] = tested on: SNB-19
# [35] = tested on: COLO 205
# [36] = tested on: SNB-75
# [37] = tested on: OVCAR-4
# [38] = tested on: PC-3
# [39] = tested on: HL-60
# [40] = tested on: SK-MEL-2
# [41] = tested on: NCI/ADR-RES
# [42] = tested on: MDA-MB-435
# [43] = tested on: KM12
# [44] = tested on: OVCAR-8
# [45] = tested on: CCRF-CEM
# [46] = tested on: SW-620
# [47] = tested on: UACC-257
# [48] = tested on: DU-145
# [49] = tested on: UO-31
# [50] = tested on: HT-29
# [51] = tested on: ACHN
# [52] = tested on: MDA-MB-231
# [53] = tested on: HCC 2998
# [54] = tested on: RXF 393
# [55] = tested on: NCI-H522
# [56] = tested on: Malme-3M
# [57] = tested on: LOX IMVI
# [58] = tested on: SF-539
smiles,measurement,setting,value
C=C[C@@H](OCOCC[Si](C)(C)C)[C@@H](CC)OC(CCCOC(=O)C(C)(C)C)OC (some centres not stated),GI50,[1],45.1 µM (inactive)
same,GI50,[2],27.1 µM (inactive)
same,GI50,[3],21.8 µM (inactive)
same,GI50,[4],91.2 µM (inactive)
same,GI50,[5],60.4 µM (inactive)
same,GI50,[6],21 µM (inactive)
same,GI50,[7],41.6 µM (inactive)
same,GI50,[8],49 µM (inactive)
same,GI50,[9],40.9 µM (inactive)
same,GI50,[10],54.2 µM (inactive)
same,GI50,[11],19.4 µM (inactive)
same,GI50,[12],41.7 µM (inactive)
same,GI50,[13],33.3 µM (inactive)
same,GI50,[14],34.5 µM (inactive)
same,GI50,[15],14.9 µM (inactive)
same,GI50,[16],45.3 µM (inactive)
same,GI50,[17],21.7 µM (inactive)
same,GI50,[18],81.1 µM (inactive)
same,GI50,[19],53.7 µM (inactive)
same,GI50,[20],22 µM (inactive)
same,GI50,[21],28.3 µM (inactive)
same,GI50,[22],43.8 µM (inactive)
same,GI50,[23],22.1 µM
same,GI50,[24],36.4 µM (inactive)
same,GI50,[25],21 µM (inactive)
same,GI50,[26],36.7 µM (inactive)
same,GI50,[27],31.5 µM (inactive)
same,GI50,[28],25.1 µM (inactive)
same,GI50,[29],21.9 µM (inactive)
same,GI50,[30],25.3 µM (inactive)
same,GI50,[31],> 100 µM (inactive)
same,GI50,[32],25 µM (inactive)
same,GI50,[33],31.3 µM (inactive)
same,GI50,[34],16.3 µM (inactive)
same,GI50,[35],29.9 µM (inactive)
same,GI50,[36],31 µM (inactive)
same,GI50,[37],26.4 µM (inactive)
same,GI50,[38],37.3 µM (inactive)
same,GI50,[39],18.4 µM (inactive)
same,GI50,[40],21.4 µM (inactive)
same,GI50,[41],30.1 µM (inactive)
same,GI50,[42],38.5 µM (inactive)
same,GI50,[43],24 µM (inactive)
same,GI50,[44],38.5 µM (inactive)
same,GI50,[45],27.9 µM (inactive)
same,GI50,[46],26.1 µM (inactive)
same,GI50,[47],34.6 µM (inactive)
same,GI50,[48],43.7 µM (inactive)
same,GI50,[49],40 µM (inactive)
same,GI50,[50],29.4 µM (inactive)
same,GI50,[51],36.7 µM (inactive)
same,GI50,[52],66.1 µM (inactive)
Cc1ccc(NC(=O)CC(=O)n2nc(C)c(/N=N/c3ccc(S(=O)(=O)CCOS(=O)(=O)O)cc3)c2C)cc1,GI50,[1],> 100 µM (inactive)
same,GI50,[2],> 100 µM (inactive)
same,GI50,[53],> 100 µM (inactive)
same,GI50,[3],> 100 µM (inactive)
same,GI50,[4],> 100 µM (inactive)
same,GI50,[5],> 100 µM (inactive)
same,GI50,[6],> 100 µM (inactive)
same,GI50,[8],> 100 µM (inactive)
same,GI50,[9],> 100 µM (inactive)
same,GI50,[10],> 100 µM (inactive)
same,GI50,[11],> 100 µM (inactive)
same,GI50,[12],> 100 µM (inactive)
same,GI50,[54],> 100 µM (inactive)
same,GI50,[13],> 100 µM (inactive)
same,GI50,[14],> 100 µM (inactive)
same,GI50,[15],> 100 µM (inactive)
same,GI50,[16],> 10 µM (inactive)
same,GI50,[17],> 100 µM (inactive)
same,GI50,[20],97.1 µM (inactive)
same,GI50,[21],> 100 µM (inactive)
same,GI50,[22],> 100 µM (inactive)
same,GI50,[23],> 10 µM
same,GI50,[24],> 100 µM (inactive)
same,GI50,[25],> 100 µM (inactive)
same,GI50,[26],> 100 µM (inactive)
same,GI50,[55],> 100 µM (inactive)
same,GI50,[27],> 100 µM (inactive)
same,GI50,[28],> 100 µM (inactive)
same,GI50,[29],> 100 µM (inactive)
same,GI50,[30],> 100 µM (inactive)
same,GI50,[56],> 100 µM (inactive)
same,GI50,[31],> 100 µM (inactive)
same,GI50,[32],> 100 µM (inactive)
same,GI50,[33],> 100 µM (inactive)
same,GI50,[34],> 100 µM (inactive)
same,GI50,[35],> 100 µM (inactive)
same,GI50,[36],> 100 µM (inactive)
same,GI50,[57],> 100 µM (inactive)
same,GI50,[38],> 100 µM (inactive)
same,GI50,[58],> 100 µM (inactive)
same,GI50,[39],> 100 µM (inactive)
same,GI50,[40],> 100 µM (inactive)
same,GI50,[41],> 100 µM (inactive)
same,GI50,[42],> 100 µM (inactive)
same,GI50,[43],> 100 µM (inactive)
same,GI50,[44],> 100 µM (inactive)
same,GI50,[45],> 100 µM (inactive)
same,GI50,[46],> 100 µM (inactive)
same,GI50,[47],80 µM (inactive)
same,GI50,[48],> 100 µM (inactive)
same,GI50,[49],> 100 µM (inactive)
same,GI50,[50],> 100 µM (inactive)
same,GI50,[51],> 100 µM (inactive)
same,GI50,[52],> 100 µM (inactive)
O=C(C#CP(=O)(O)c1ccccc1)c1ccccc1,GI50,[1],> 100 µM (inactive)
same,GI50,[2],> 100 µM (inactive)
same,GI50,[53],> 100 µM (inactive)
same,GI50,[3],> 100 µM (inactive)
same,GI50,[5],> 100 µM (inactive)
same,GI50,[6],> 100 µM (inactive)
same,GI50,[7],> 100 µM (inactive)
same,GI50,[8],> 100 µM (inactive)
same,GI50,[9],> 100 µM (inactive)
same,GI50,[10],> 100 µM (inactive)
same,GI50,[11],> 100 µM (inactive)
same,GI50,[13],> 100 µM (inactive)
same,GI50,[14],> 100 µM (inactive)
same,GI50,[15],> 100 µM (inactive)
same,GI50,[16],> 100 µM (inactive)
same,GI50,[17],> 100 µM (inactive)
same,GI50,[18],> 100 µM (inactive)
same,GI50,[19],> 100 µM (inactive)
same,GI50,[20],> 100 µM (inactive)
same,GI50,[21],> 100 µM (inactive)
same,GI50,[22],> 100 µM (inactive)
same,GI50,[23],> 100 µM
same,GI50,[24],> 100 µM (inactive)
same,GI50,[25],> 100 µM (inactive)
same,GI50,[26],> 100 µM (inactive)
same,GI50,[55],> 100 µM (inactive)
same,GI50,[27],> 100 µM (inactive)
same,GI50,[28],> 100 µM (inactive)
same,GI50,[30],> 100 µM (inactive)
same,GI50,[56],> 100 µM (inactive)
same,GI50,[31],> 100 µM (inactive)
same,GI50,[32],> 100 µM (inactive)
same,GI50,[33],> 100 µM (inactive)
same,GI50,[34],> 100 µM (inactive)
same,GI50,[35],> 100 µM (inactive)
same,GI50,[36],> 100 µM (inactive)
same,GI50,[37],> 100 µM (inactive)
same,GI50,[57],> 100 µM (inactive)
same,GI50,[38],> 100 µM (inactive)
same,GI50,[58],> 100 µM (inactive)
same,GI50,[40],> 100 µM (inactive)
same,GI50,[41],> 100 µM (inactive)
same,GI50,[42],> 100 µM (inactive)
same,GI50,[43],> 100 µM (inactive)
same,GI50,[44],> 100 µM (inactive)
same,GI50,[46],> 100 µM (inactive)
same,GI50,[47],> 100 µM (inactive)
same,GI50,[48],> 100 µM (inactive)
same,GI50,[49],< 0.01 µM (active)
same,GI50,[50],> 100 µM (inactive)
same,GI50,[51],> 100 µM (inactive)
